{"source": "paper PMC4751974", "about": "“Deriving Heterospecific Self-Assembling Protein–Protein Interactions Using a Computational Interactome Screen” (Journal of Molecular Biology, 2016)", "system": "coiled-coil pairs within the eight-peptide interactome", "test": "Thermal denaturation followed by CD at 222 nm (Tm of coiled-coil pairs)", "type": "binding", "conditions": "Table 1 and text, CD 222 nm, 150 μM total peptide (75 μM per peptide for heterodimers), 10 mM potassium phosphate, 100 mM potassium fluoride, pH 7, -8 to 95 °C in 1 °C steps, two-state fit", "procedure": "CD was carried out using an Applied Photophysics Chirascan CD apparatus (Leatherhead, UK) using a 200-μl sample in a CD cell with a 1-mm path length. Samples contained 150 μM total peptide (Pt) concentration at equimolar concentration for heterodimeric solutions (i.e., 75 μM per peptide) and suspended in 10 mM potassium phosphate and 100 mM potassium fluoride at pH 7 1 h prior to analysis. The CD spectra of samples were scanned between 300 nm and 190 nm in 1-nm steps, averaging 0.5 s at each wavelength. Three scans at 20 °C were averaged to assess helical levels and coiled-coil structure.\nThermal denaturations were performed at 150 μM Pt in 10 mM potassium phosphate and 100 mM potassium fluoride, pH 7, using an Applied Photophysics Chirascan CD instrument (Leatherhead, UK). The temperature ramp was set to stepping mode using 1 °C increments and paused for 30 s at each temperature before measuring ellipticity at 222 nm. For all temperature denaturation experiments, data collection was started at − 8 °C, and at this temperature, the peptide solutions remained aqueous. Data collection continued to 95 °C. Data points for thermal denaturation profiles represent the averaged signal after 4 s of data collection. Melting profiles (see Fig. 3a) were ≥ 95% reversible with equilibrium denaturation curves fitted to a two-state model, derived via modification of the Gibbs–Helmholtz equation [6], [45], [46], to yield the melting temperature (Tm). […] Tm values were determined by least-squares fitting of the denaturation assuming a two-state folding model that is widely used for coiled coils and provided an excellent fit to our data."}
{"sequence": "ASENAALEAKNAALKYKIAALKAEIAALEGAP [Peptide 1, N- and C-capped coiled-coil peptide; 1-1 is the homomeric sample]", "values": [{"measurement": "Tm", "value": 32, "unit": "°C"}]}
{"sequence": "ASKNAALKAENAALEYEIAALEAKIAALKGAP [Peptide 2, N- and C-capped coiled-coil peptide; 2-2 is the homomeric sample]", "values": [{"measurement": "Tm", "value": 20, "unit": "°C"}]}
{"sequence": "ASKNAALKAEIAALEYKIAALKAENAALEGAP [Peptide 5, N- and C-capped coiled-coil peptide; 5-5 is the homomeric sample]", "values": [{"measurement": "Tm", "value": 53, "unit": "°C"}]}
{"sequence": "ASKIAALKAKNAALKYENAALEAEIAALEGAP [Peptide 7, N- and C-capped coiled-coil peptide; 7-7 is the homomeric sample]", "values": [{"measurement": "Tm", "setting": "listed as 7-7", "value": 11, "unit": "°C"}]}
{"sequence": "ASENAALEAKIAALKYEIAALEAKNAALKGAP [Peptide 6, N- and C-capped coiled-coil peptide; 6-6 is the homomeric sample]", "values": [{"measurement": "Tm", "value": 53, "unit": "°C"}]}
{"sequence": "ASEIAALEAENAALEYKNAALKAKIAALKGAP [Peptide 8, N- and C-capped coiled-coil peptide; 8-8 is the homomeric sample]", "values": [{"measurement": "Tm", "setting": "listed as 8-8", "value": 27, "unit": "°C"}]}
